# Data: PubChem BioAssay (NCI)
#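 GI50 = concentration required for 50% inhibition of growth. Definition used: TGI = concentration required for complete inhibition of growth.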
# Experiments:
# Experiment in all cases: growth of human tumour cells (NCI), 384-well format
# SNB-19 CNS = system: SNB-19 CNS
# A498 renal = system: A498 renal
# RXF 393 renal = system: RXF 393 renal
# NCI-H23 lung = system: NCI-H23 lung
# SNB-75 CNS = system: SNB-75 CNS
# SF-295 CNS = system: SF-295 CNS
# NCI/ADR-RES ovarian = system: NCI/ADR-RES ovarian
# LOX IMVI melanoma = system: LOX IMVI melanoma
# MDA-MB-231 breast = system: MDA-MB-231 breast
# U251 glioblastoma = system: U251 glioblastoma
# MOLT-4 leukemia = system: MOLT-4 leukemia
# OVCAR-5 ovarian = system: OVCAR-5 ovarian
# SK-OV-3 ovarian = system: SK-OV-3 ovarian
# RPMI-8226 leukemia = system: RPMI-8226 leukemia
# OVCAR-8 ovarian = system: OVCAR-8 ovarian
# 786-0 renal = system: 786-0 renal
# OVCAR-4 ovarian = system: OVCAR-4 ovarian
# MALME-3M melanoma = system: MALME-3M melanoma
# SR leukemia = system: SR leukemia
# HOP-92 NSCLC = system: HOP-92 NSCLC
# CCRF-CEM leukemia = system: CCRF-CEM leukemia
# HOP-62 NSCLC = system: HOP-62 NSCLC
# SF-539 CNS = system: SF-539 CNS
# SK-MEL-28 melanoma = system: SK-MEL-28 melanoma
# CAKI-1 renal = system: CAKI-1 renal
# COLO 205 colon = system: COLO 205 colon
# K-562 leukemia = system: K-562 leukemia
# HCT-116 colon = system: HCT-116 colon
# IGROV1 ovarian = system: IGROV1 ovarian
# MDA-MB-435 melanoma = system: MDA-MB-435 melanoma
# A549 NSCLC = system: A549 NSCLC
# HL-60(TB) leukemia = system: HL-60(TB) leukemia
# BT-549 breast = system: BT-549 breast
# HS 578T breast = system: HS 578T breast
# NCI-H460 NSCLC = system: NCI-H460 NSCLC
# SW-620 colon = system: SW-620 colon
# OVCAR-3 ovarian = system: OVCAR-3 ovarian
# SK-MEL-5 melanoma = system: SK-MEL-5 melanoma
# NCI-H522 lung = system: NCI-H522 lung
# SN12C renal = system: SN12C renal
# SK-MEL-2 melanoma = system: SK-MEL-2 melanoma
# UACC-257 melanoma = system: UACC-257 melanoma
# NCI-H226 lung = system: NCI-H226 lung
# TK-10 renal = system: TK-10 renal
# DU-145 prostate = system: DU-145 prostate
# PC-3 prostate = system: PC-3 prostate
# UACC-62 melanoma = system: UACC-62 melanoma
structure (smiles),measurement,setting,value
CCN(CC)CCNC(=O)c1c(C)[nH]c(/C=C2\C(=O)Nc3ccc(F)cc32)c1C,GI50,SNB-19 CNS,6.08 µM
same,TGI,SNB-19 CNS,13.7 µM
same,GI50,A498 renal,1540 nM
same,TGI,A498 renal,3.14 µM
same,GI50,RXF 393 renal,1880 nM
same,TGI,RXF 393 renal,3.53 µM
same,GI50,NCI-H23 lung,1910 nM
same,TGI,NCI-H23 lung,4.64 µM
same,GI50,SNB-75 CNS,3.67 µM
same,TGI,SNB-75 CNS,8.24 µM
same,GI50,SF-295 CNS,5.25 µM
same,TGI,SF-295 CNS,9.62 µM
same,GI50,NCI/ADR-RES ovarian,2560 nM
same,TGI,NCI/ADR-RES ovarian,6.16 µM
same,GI50,LOX IMVI melanoma,1390 nM
same,TGI,LOX IMVI melanoma,2710 nM
same,GI50,MDA-MB-231 breast,2220 nM
same,TGI,MDA-MB-231 breast,5.5 µM
same,GI50,U251 glioblastoma,2090 nM
same,TGI,U251 glioblastoma,5.09 µM
same,GI50,MOLT-4 leukemia,1030 nM
same,TGI,MOLT-4 leukemia,2280 nM
same,GI50,OVCAR-5 ovarian,2670 nM
same,TGI,OVCAR-5 ovarian,11.2 µM
same,GI50,SK-OV-3 ovarian,1040 nM
same,TGI,SK-OV-3 ovarian,5.7 µM
same,GI50,RPMI-8226 leukemia,1380 nM
same,TGI,RPMI-8226 leukemia,2780 nM
same,GI50,OVCAR-8 ovarian,2350 nM
same,TGI,OVCAR-8 ovarian,6.18 µM
same,GI50,786-0 renal,1620 nM
same,TGI,786-0 renal,3.11 µM
same,GI50,OVCAR-4 ovarian,3.93 µM
same,TGI,OVCAR-4 ovarian,8.44 µM
same,GI50,MALME-3M melanoma,1170 nM
same,TGI,MALME-3M melanoma,2410 nM
same,GI50,SR leukemia,1810 nM
same,TGI,SR leukemia,3.24 µM
same,GI50,HOP-92 NSCLC,1620 nM
same,TGI,HOP-92 NSCLC,4.86 µM
same,GI50,CCRF-CEM leukemia,1580 nM
same,TGI,CCRF-CEM leukemia,2940 nM
same,GI50,HOP-62 NSCLC,2780 nM
same,TGI,HOP-62 NSCLC,8.28 µM
same,GI50,SF-539 CNS,1280 nM
same,TGI,SF-539 CNS,2610 nM
same,GI50,SK-MEL-28 melanoma,1660 nM
same,TGI,SK-MEL-28 melanoma,3.13 µM
same,GI50,CAKI-1 renal,748 nM
same,TGI,CAKI-1 renal,2060 nM
same,GI50,COLO 205 colon,3.18 µM
same,TGI,COLO 205 colon,7.89 µM
same,GI50,K-562 leukemia,1350 nM
same,TGI,K-562 leukemia,2660 nM
same,GI50,HCT-116 colon,1280 nM
same,TGI,HCT-116 colon,2620 nM
same,GI50,IGROV1 ovarian,1140 nM
same,TGI,IGROV1 ovarian,5.97 µM
same,GI50,MDA-MB-435 melanoma,2450 nM
same,TGI,MDA-MB-435 melanoma,6.53 µM
same,GI50,A549 NSCLC,2580 nM
same,TGI,A549 NSCLC,6.97 µM
same,GI50,HL-60(TB) leukemia,892 nM
same,TGI,HL-60(TB) leukemia,2130 nM
same,GI50,BT-549 breast,1580 nM
same,TGI,BT-549 breast,2980 nM
same,GI50,HS 578T breast,1860 nM
same,TGI,HS 578T breast,3.73 µM
same,GI50,NCI-H460 NSCLC,1790 nM
same,TGI,NCI-H460 NSCLC,5.73 µM
same,GI50,SW-620 colon,1700 nM
same,TGI,SW-620 colon,4.29 µM
same,GI50,OVCAR-3 ovarian,1780 nM
same,TGI,OVCAR-3 ovarian,3.31 µM
same,GI50,SK-MEL-5 melanoma,1240 nM
same,TGI,SK-MEL-5 melanoma,2500 nM
same,GI50,NCI-H522 lung,2220 nM
same,TGI,NCI-H522 lung,6.49 µM
same,GI50,SN12C renal,931 nM
same,TGI,SN12C renal,10.4 µM
same,GI50,SK-MEL-2 melanoma,1290 nM
same,TGI,SK-MEL-2 melanoma,2570 nM
same,GI50,UACC-257 melanoma,1710 nM
same,TGI,UACC-257 melanoma,3.1 µM
same,GI50,NCI-H226 lung,1610 nM
same,TGI,NCI-H226 lung,4.48 µM
same,GI50,TK-10 renal,3.11 µM
same,TGI,TK-10 renal,8.02 µM
same,GI50,DU-145 prostate,2540 nM
same,TGI,DU-145 prostate,11.9 µM
same,GI50,PC-3 prostate,2270 nM
same,TGI,PC-3 prostate,7.54 µM
same,GI50,UACC-62 melanoma,1800 nM
same,TGI,UACC-62 melanoma,4.46 µM
